In US20230364029A1, “POLYMORPHIC FORMS OF (R)-2-HYDROXY-2-METHYL-4-(2,4,5-TRIMETHYL-3,6-DIOXOCYCLOHEXA-1,4-DIENYL)BUTANAMIDE” (PTC THERAPEUTICS, INC., priority 2014, published 2023):
In brackets after ≈: the same amount, converted by molar mass.

Key:
Assay type in all cases: physicochemical
[1] = Solubility measurement of Pattern A in 17 solvent systems (gravimetric); conditions: for solubility: thermodynamic from solid
Source text: (R)-Trolox was produced from racemic Trolox via methylbenzyl amine double resolution in a manner similar to that described in Example 29 of U.S. Pat. No. 4,026,907. This (R)-Trolox was used to synthesize the (R)-2-hydroxy-2-methyl-4-(2,4,5-trimethyl-3,6-dioxocyclohexa-1,4-dienyl)butanamide starting material. This starting material, designated as Pattern A, was used for the solubility measurement.
Excess amount of solid was slurried in 17 solvent systems having diverse properties for minimum of 3 days. The slurry was centrifuged and the clear solution was used for gravimetric method. […] Limited solubility was observed from heptane, toluene, MTBE, water and 0.5% Methyl Cellulose in water at ambient and elevated temperatures. Table 9 presents the measured solubility data. A ±10% error is expected.

[2] = Short term slurry experiments (form by XRPD); conditions: slurried in most of 17 solvents, min. 3 days
Protocol: Short term slurry experiments of the starting material, Pattern A, were performed for a minimum of 3 days in 17 different solvent systems having diverse properties at two different temperatures (25 and 50° C.). A 48 position Chemglass reaction block was used for heating and stirring the slurries which were in 2 mL HPLC vials. After the due time, vials were centrifuged and the wet solids were used for X-ray diffraction.

[3] = 7 day elevated aqueous humidity studies; conditions: for XRPD [Pattern] 7 day: form after 7 days
Protocol: 7 day elevated aqueous humidity experiments were performed on all Patterns A, B, C, D, E and F at ambient conditions at > 95%RH (Table 17). Approximately 30 mg of each pattern was weighed into a 4 ml glass vial. The uncovered 4 ml vial was inserted into a 20 ml scintillation vial half filled with water and capped. Following 24 hours of equilibration, visual inspection was performed to check for changes in physical appearance, however no change was observed.

[4] = Moisture sorption analysis; conditions: for Hygroscopicity: moisture sorption, 0-95% RH cycles
Protocol: (§1) Moisture sorption analysis of the starting material was performed by equilibrating the sample at 25° C. and 50% RH to simulate ambient lab conditions. Humidity then decreased to 0% RH, increased from 0 to 95% RH, reduced from 95 to 0% RH, increased from 0 to 95 %RH and then decreased from 95 to 50% RH. Each point represents the estimated asymptotic weight for each humidity or weight. […] No hysteresis was observed upon desorption (FIG. 14).
as §1, with “of Pattern E (from” for “of”, “300 mg scale lot)” for “starting material”, “Humidity was” for “Humidity”, “19).” for “14).”
Moisture sorption analysis of Pattern C (300 mg lot) was performed by equilibrating the sample at 25° C. and 50% RH to simulate ambient lab conditions. Humidity was then decreased to 0% RH, increased from 0 to 95% RH, reduced from 95 to 0% RH, increased from 0 to 95%RH and then decreased from 95 to 50% RH. Each point represents the estimated asymptotic weight for each humidity or weight. […] This increased the total water to about 6% which is the water content of mono-hydrate. However, upon reducing the relative humidity, the solid lost its water. Therefore this could be a channel hydrate. No hysteresis was observed upon desorption (FIG. 24).
as §1, with “Pattern B (300 mg lot)” for “the starting material”, “The major weight loss at the beginning” for “No hysteresis”, “due to loss of solvent.” for “observed upon desorption (FIG. 14).”
as §1, with “Pattern F (from Example 6)” for “the starting material”, “Humidity was” for “Humidity”, “The major weight loss at the beginning is due to loss of solvent.” for “No hysteresis was observed upon desorption (FIG. 14).”

[5] = Aqueous solubility (HPLC); conditions: water, thermodynamic from solid, ambient conditions, 24 hours of equilibration
Protocol: Aqueous solubility of Patterns A, B, C, E and F was performed using an Agilent HPLC system. Approximately 10-20 mg of each form was charged to a 2 mL glass vial loaded with a magnetic stir bar and added 2 mL of water. The samples were allowed to stir overnight at ambient conditions. Following 24 hours of equilibration the samples were centrifuged and decanted into HPLC vials. A calibration curve was generated based on Pattern A in MeOH at 0.05, 0.1, 0.5 and 1.0 mg/mL. Following injection of the standard curve, the samples were run as is.

Grinding experiments = conditions: for XRPD after grinding: RT; for Stability of crystal form to grinding: light grinding, dry and with IPA or water
Protocol: Grinding experiments of the starting material were performed by dry grinding and solvent drop grinding in IPA and water utilizing a mortar and pestle (Table 18).

Question: With CC1=C(C)C(=O)C(CC[C@@](C)(O)C(N)=O)=C(C)C1=O [Pattern A, (R)-2-hydroxy-2-methyl-4-(2,4,5-trimethyl-3,6-dioxocyclohexa-1,4-dienyl)butanamide] as the compound, how does the “Solubility in a simple detergent” value ([1]; 0.5% MC/2% Tween 80) read?
Answer: increased solubility

Question: What about the solubility ([1]; 0.5% methyl cellulose in water, 25 °C, aqueous with cosolvent or surfactant or cyclodextrin, 0.5% MC in Water, part of the concentration relates to solvent constituents) of the same compound?
Answer: 7 mg/mL (≈ 26.4 mM)

Question: What about the solubility ([1]; 0.5% methyl cellulose in water, 50 °C, aqueous with cosolvent or surfactant or cyclodextrin, 0.5% MC in Water, part of the concentration relates to solvent constituents) of the same compound?
Answer: 4 mg/mL (≈ 15.1 mM)

Question: And the solubility ([1]; 0.5% methyl cellulose/2% Tween 80, 25 °C, aqueous with cosolvent or surfactant or cyclodextrin, 0.5% MC/2% Tween 80, 25° C., part of the concentration relates to solvent constituents)?
Answer: 26 mg/mL (≈ 98 mM)

Question: And the solubility ([1]; 0.5% methyl cellulose/2% Tween 80, 50 °C, aqueous with cosolvent or surfactant or cyclodextrin, 0.5% MC/2% Tween 80, 50° C., part of the concentration relates to solvent constituents)?
Answer: 30 mg/mL (≈ 113 mM)

Question: What about the solubility ([1]; 2-MeTHF, 25 °C, organic solvent or mixture, gravimetric) of the same compound?
Answer: 35 mg/mL (≈ 132 mM)

Question: What about the solubility ([1]; 2-MeTHF, 50 °C, organic solvent or mixture, gravimetric) of the same compound?
Answer: 59 mg/mL (≈ 222 mM)

Question: What about the solubility ([1]; 4% DMA in PBS, 25 °C, aqueous buffer, part of the concentration relates to solvent constituents) of the same compound?
Answer: 10 mg/mL (≈ 37.7 mM)

Question: What about the solubility ([1]; 4% DMA in PBS, 50 °C, aqueous buffer, part of the concentration relates to solvent constituents) of the same compound?
Answer: 13 mg/mL (≈ 49 mM)

Question: What about the solubility ([1]; EtOAc, 25 °C, organic solvent or mixture, gravimetric) of the same compound?
Answer: 22 mg/mL (≈ 82.9 mM)

Question: What about the solubility ([1]; EtOAc, 50 °C, organic solvent or mixture, gravimetric) of the same compound?
Answer: 38 mg/mL (≈ 143 mM)

Question: And the solubility ([1]; EtOH, 25 °C, organic solvent or mixture, gravimetric)?
Answer: 40 mg/mL (≈ 151 mM)

Question: And the solubility ([1]; EtOH, 50 °C, organic solvent or mixture, gravimetric)?
Answer: > 121 mg/mL

Question: And the “Solubility in polar and non-polar solvents” value ([1]; Example 2, summary statement)?
Answer: soluble in a variety of polar and non-polar solvents

Question: What about the solubility ([1]; IPA, 25 °C, organic solvent or mixture, gravimetric) of the same compound?
Answer: 20 mg/mL (≈ 75.4 mM)

Question: What about the solubility ([1]; IPA, 50 °C, organic solvent or mixture, gravimetric) of the same compound?
Answer: 53 mg/mL (≈ 200 mM)

Question: And the solubility ([1]; IPAc, 25 °C, organic solvent or mixture, gravimetric)?
Answer: 13 mg/mL (≈ 49 mM)

Question: And the solubility ([1]; IPAc, 50 °C, organic solvent or mixture, gravimetric)?
Answer: 16 mg/mL (≈ 60.3 mM)

Question: And the solubility ([1]; MTBE, 25 °C, organic solvent or mixture, gravimetric)?
Answer: 10 mg/mL (≈ 37.7 mM)

Question: What about the solubility ([1]; MTBE, 50 °C, organic solvent or mixture, gravimetric) of the same compound?
Answer: 16 mg/mL (≈ 60.3 mM)

Question: What about the solubility ([1]; MeCN, 25 °C, organic solvent or mixture, gravimetric) of the same compound?
Answer: 20 mg/mL (≈ 75.4 mM)

Question: What about the solubility ([1]; MeCN, 50 °C, organic solvent or mixture, gravimetric) of the same compound?
Answer: 38 mg/mL (≈ 143 mM)

Question: And the solubility ([1]; MeOH, 25 °C, organic solvent or mixture, gravimetric)?
Answer: > 101 mg/mL

Question: What about the solubility ([1]; MeOH, 50 °C, organic solvent or mixture, gravimetric) of the same compound?
Answer: > 112 mg/mL

Question: What about the solubility ([1]; THF, 25 °C, organic solvent or mixture, gravimetric) of the same compound?
Answer: 28 mg/mL (≈ 106 mM)

Question: And the solubility ([1]; THF, 50 °C, organic solvent or mixture, gravimetric)?
Answer: 33 mg/mL (≈ 124 mM)

Question: What about the solubility ([1]; acetone, 25 °C, organic solvent or mixture, gravimetric) of the same compound?
Answer: 39 mg/mL (≈ 147 mM)

Question: And the solubility ([1]; acetone, 50 °C, organic solvent or mixture, gravimetric)?
Answer: 90 mg/mL (≈ 339 mM)

Question: And the solubility ([1]; heptane, 25 °C, organic solvent or mixture, slurry min. 3 days, gravimetric)?
Answer: 6 mg/mL (≈ 22.6 mM)

Question: And the solubility ([1]; heptane, 50 °C, organic solvent or mixture, slurry min. 3 days, gravimetric)?
Answer: 6 mg/mL (≈ 22.6 mM)

Question: What about the solubility ([1]; toluene, 25 °C, organic solvent or mixture, gravimetric) of the same compound?
Answer: 3 mg/mL (≈ 11.3 mM)

Question: And the solubility ([1]; toluene, 50 °C, organic solvent or mixture, gravimetric)?
Answer: < 18 mg/mL

Question: And the solubility ([1]; water, 25 °C, ^1Water (second water line), gravimetric)?
Answer: 2 mg/mL (≈ 7.54 mM)

Question: What about the solubility ([1]; water, 25 °C, gravimetric) of the same compound?
Answer: 3 mg/mL (≈ 11.3 mM)

Question: And the solubility ([1]; water, 50 °C, ^1Water (second water line), gravimetric)?
Answer: 6 mg/mL (≈ 22.6 mM)

Question: And the solubility ([1]; water, 50 °C, gravimetric)?
Answer: 3 mg/mL (≈ 11.3 mM)

Question: What about the “Stability of form in short term slurry” value [2] of the same compound?
Answer: relatively stable

Question: And the “Visual Observations 1 day” value ([3]; > 95 %RH at Ambient)?
Answer: Yellow solids

Question: What about the “Visual Observations 7 day” value ([3]; > 95 %RH at Ambient) of the same compound?
Answer: Yellow Solids

Question: What about the “XRPD [Pattern] 7 day” value ([3]; > 95 %RH at Ambient) of the same compound?
Answer: no change in form

Question: What about the “XRPD [Pattern] 7 day” value ([3]; > 95 %RH at Ambient, listed as A) of the same compound?
Answer: Crystalline [Pattern A]

Question: What about the “Stability to elevated humidity” value ([3]; Example 8, summary statement) of the same compound?
Answer: stability to elevated humidity

Question: What about the “XRPD following moisture sorption analysis” value ([4]; after 0-95% RH cycles at 25° C.) of the same compound?
Answer: consistent with the starting material, Pattern A

Question: And the Water adsorbed ([4]; at 90 %RH, 25° C.)?
Answer: 0.1%

Question: What about the Hygroscopicity ([4]; 25° C.) of the same compound?
Answer: non-hygroscopic

Question: And the Hygroscopicity ([4]; 25° C., listed as Form I)?
Answer: non-hygroscopic

Question: And the Hysteresis upon desorption ([4]; moisture sorption-desorption, 25° C.)?
Answer: No hysteresis

Question: And the solubility at 24 h [5]?
Answer: 1.74 mg/mL (≈ 6.56 mM)

Question: And the XRPD after grinding (Grinding experiments; dry grinding, mortar and pestle)?
Answer: Pattern A

Question: And the “Stability of crystal form to grinding” value (Grinding experiments)?
Answer: no change in the crystal form

Question: And the “Stability of crystal form to grinding” value (Grinding experiments; listed as Form I)?
Answer: stability to grinding

Question: What about the XRPD after grinding (Grinding experiments; solvent drop grinding, H2O (2 drops)) of the same compound?
Answer: Pattern A

Question: What about the XRPD after grinding (Grinding experiments; solvent drop grinding, IPA (2 drops)) of the same compound?
Answer: Pattern A
